According to patent publication US20230000934A1, “METHODS FOR ENGINEERING THERAPEUTICS AND USES THEREOF” (The Trustees of Columbia University In The City of New York, priority 2019, published 2023):

Key:
[1] = cited from earlier work
[2] = system: cofactor F420 reductase from Methanobacterium thermoautotrophicum; conditions: as substrate of the F420 reductase; cited from earlier work
S. cerevisiae = format: cell-based, Saccharomyces cerevisiae
Text: The third primary library (PL3) mediates TAN-1612 high-titer toxicity by merging three complimentary routes. This example (i) optimizes performance of an efflux pump in order to reduce intracellular TAN-1612 concentrations, (ii) screens a large number of wild yeast isolates for higher TAN-1612 tolerance and use them for background crossing and (iii) evolves the v2.0 producer for TAN-1612 resistance through random mutagenesis and selection. In preliminary results, TAN-1612 and anhydrotetracycline (Atc) growth inhibition in concentrations of 10 mg/L was confirmed. In order to increase TAN-1612 tolerance the v2.0 producer co-expresses the supposed efflux pump […]_48051 (GenBank: EHA19824.1) that was obtained by genome-mining from the natural producer strain A. niger. […] This can improve pump performance via gene titration and genome-mines other efflux pumps. PL3 further includes of a large number (>50) of wild S. cerevisiae isolates that are screened for higher tolerance to TAN-1612 using a growth-based microtiter plate assay.

[3] = system: Saccharomyces cerevisiae BJ5464; experiment: Toxicity assay of TAN-1612 in Saccharomyces cerevisiae; format: cell-based
Experimental: The toxicity assay of TAN-1612 in Saccharomyces cerevisiae. BJ5464 strains were cultured in complete synthetic medium in presence of different tetracycline or its analogs. […] (FIG. 42B) BJ5464 strains were cultured in YPD: non-defined medium in presence of different tetracycline or its analogs. (FIG. 42A). […] (FIG. 43).

For `OCC1OC(OC(c2ccccc2)c2ccccc2)C(O)C(O)C1O` (stereo not shown), the “Relative rate of acid hydrolysis (to OMe)” value [1] is given as 25.6.
For `OCC1OC(OC23CC4CC(CC(C4)C2)C3)C(O)C(O)C1O` (stereo not shown), the “Relative rate of acid hydrolysis (to OMe)” value [1] is listed as 48.5.
In the case of `O=c1nc2n(C[C@H](O)[C@H](O)[C@H](O)CO)c3cc(O)ccc3cc-2c(=O)[nH]1` [Fo, 7,8-didemethyl-8-hydroxy-5-deazariboflavin], the Km [2] is listed as 34 µM.
For `COc1cc(O)c2c(O)c3c(cc2c1)CC1(O)CC(=O)C(C(C)=O)=C(O)C1(O)C3=O` (stereo not shown) [TAN-1612], the “growth inhibition in concentrations of” value (S. cerevisiae) was 10 mg/L, the “toxicity at the range of” value ([3]; BJ5464 cultured in YPD non-defined medium) was 50 to 100 mg/L and the “toxicity at the range of” value ([3]; BJ5464 cultured in complete synthetic medium) was 1 to 10 mg/L.
In the case of `Cc1c2c(c(O)c3c(O)cccc13)C(=O)[C@]1(O)C(=O)C(C(N)=O)=C(O)[C@@H](N(C)C)[C@@H]1C2` [anhydrotetracycline, reference compound], the “growth inhibition in concentrations of” value (S. cerevisiae) is reported as 10 mg/L.
